IC50 data for 31 molecules are collected here from US20250346602A1, “LACTAM SUBSTITUTED IMIDAZOPYRIDAZINE IL-17A MODULATORS AND USES THEREOF” (DICE ALPHA, INC., priority 2022, published 2025).

The structures appear in SMILES notation.

The assay has as its target T1, IL-17A/A (Homo sapiens, UniProt Q16552).
T1 construct: purchased Genscript Z03228
T1 sequence (Q16552 24-155): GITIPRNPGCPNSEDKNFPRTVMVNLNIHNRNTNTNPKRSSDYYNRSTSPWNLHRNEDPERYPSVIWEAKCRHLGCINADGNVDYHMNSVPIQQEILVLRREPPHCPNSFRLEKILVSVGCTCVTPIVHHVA
The assay is described as follows: IL-17A/A HEK-Blue cell assay. The assay is classed as cell-based. The conditions noted are these: HEK-Blue IL-17A reporter cell line (HEK 293), IL-17A/A stimulation, 20 hours incubation, SEAP read at A630. The method, boiled down:
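IC50 came from a 4-parameter fit of SEAP read at A630 (Quanti-Blue). Compound was titrated to a top final concentration of 10, 1 or 0.3 uM with 0.1% final DMSO and added just before IL-17A/A. Incubation lasted 20 hours in HEK293 cells engineered with IL-17RA, IL-17RC, Act1 and an NFκB-SEAP reporter.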
A word on the IC50: it is the concentration that gives 50% inhibition. `CCn1nccc1C(=O)N[C@H](c1cn2nc(CC3CC4(CC4)NC3=O)ccc2n1)C(C1CC1)C1CC1` (stereo partly drawn) [Compound 60, N-((1S)-2,2-dicyclopropyl-1-(6-((5-oxo-4-azaspiro[2.4]heptan-6-yl)methyl)imidazo[1,2-b]pyridazin-2-yl)ethyl)-1-ethyl-1H-pyrazole-5-carboxamide]: the IC50 is 0.1 to 1 µM. Consider `O=C(N[C@H](c1cn2nc(CC3C[C@@H](C(F)(F)F)CNC3=O)ccc2n1)[C@@H]1CCCC(F)(F)C1)c1conc1C1CC1` (stereo partly drawn) [Compound 147, 3-cyclopropyl-N-((1S)—((R)-3,3-difluorocyclohexyl)(6-(((5R)-2-oxo-5-(trifluoromethyl)piperidin-3-yl)methyl)imidazo[1,2-b]pyridazin-2-yl)methyl)isoxazole-4-carboxamide], for which the IC50 fell in the range of 0.1 to 1 µM. The result for `CCc1nonc1C(=O)N[C@H](c1cn2nc(C[C@H]3C[C@@H](C(F)(F)F)NC3=O)ccc2n1)C(C1CC1)C1CC1` [Compound 20, N—((S)-2,2-dicyclopropyl-1-(6-(((3R,5S)-2-oxo-5-(trifluoromethyl)pyrrolidin-3-yl)methyl)imidazo[1,2-b]pyridazin-2-yl)ethyl)-4-ethyl-1,2,5-oxadiazole-3-carboxamide] reads 0.1 to 1 µM. As for `CCn1nccc1C(=O)N[C@H](c1cn2nc(CC3C[C@@H](C(F)(F)F)CNC3=O)c(C)cc2n1)C1CCC(F)(F)CC1` (single isomer, unassigned) [Compound 82], the IC50 was greater than 1 µM. As to `O=C(N[C@H](c1cn2nc(CC3C[C@@H](C(F)(F)F)CNC3=O)ccc2n1)C1CCC(F)(F)CC1)c1conc1C1CC(F)(F)C1` (stereo partly drawn) [Compound 124, 3-(3,3-difluorocyclobutyl)-N-((1S)-(4,4-difluorocyclohexyl)(6-(((5R)-2-oxo-5-(trifluoromethyl)piperidin-3-yl)methyl)imidazo[1,2-b]pyridazin-2-yl)methyl)isoxazole-4-carboxamide], the IC50 lay in the range of 0.1 to 1 µM. Next, `CC(C)n1nccc1C(=O)N[C@H](c1cn2nc(CC3C[C@H](C(F)(F)F)CNC3=O)ccc2n1)[C@H]1CCCC(F)(F)C1` (stereo partly drawn) [Compound 159, N-((1S)—((S)-3,3-difluorocyclohexyl)(6-(((5S)-2-oxo-5-(trifluoromethyl)piperidin-3-yl)methyl)imidazo[1,2-b]pyridazin-2-yl)methyl)-1-isopropyl-1H-pyrazole-5-carboxamide]: less than 0.1 µM; `CCn1nccc1C(=O)N[C@H](c1cn2nc(CC3CC(F)(F)CNC3=O)ccc2n1)C(C1CC1)C1CC1` (single isomer, unassigned) [Compound 29]: greater than 1 µM; `O=C(N[C@H](c1cn2nc(CC3C[C@@H](C(F)(F)F)CNC3=O)ccc2n1)C1CCC(F)(F)CC1)c1cnnn1CCF` (stereo partly drawn) [Compound 109, N-((1S)-(4,4-difluorocyclohexyl)(6-(((5R)-2-oxo-5-(trifluoromethyl)piperidin-3-yl)methyl)imidazo[1,2-b]pyridazin-2-yl)methyl)-1-(2-fluoroethyl)-1H-1,2,3-triazole-5-carboxamide]: 0.1 to 1 µM. The result for `CCn1nccc1C(=O)N[C@H](c1cn2ncc(CC3C[C@@H](C(F)(F)F)CNC3=O)cc2n1)C(C1CC1)C1CC1` (single isomer, unassigned) [Compound 208] reads 0.1 to 1 µM; that for `CCn1nccc1C(=O)NC(c1cn2nc(CC3C(=O)NCC4CC43)ccc2n1)C1CCC(C)CC1` (single isomer, unassigned) [Compound 48], 0.1 to 1 µM; that for `O=C(N[C@H](c1cn2nc(CC3C[C@@H](C(F)(F)F)CNC3=O)ccc2n1)C1CCC(F)(F)CC1)c1nonc1C(F)F` (stereo partly drawn) [Compound 115, N-((1S)-(4,4-difluorocyclohexyl)(6-(((5R)-2-oxo-5-(trifluoromethyl)piperidin-3-yl)methyl)imidazo[1,2-b]pyridazin-2-yl)methyl)-4-(difluoromethyl)-1,2,5-oxadiazole-3-carboxamide], 0.1 to 1 µM. Take `CCn1nccc1C(=O)N[C@H](c1cn2nc(CC3CC(C(F)(F)F)CNC3=O)ccc2n1)C1CCCCCC1` (single isomer, unassigned) [Compound 195]: the IC50 was greater than 1 µM. Next, `CCn1nccc1C(=O)N[C@H](c1cn2nc(CC3C(=O)NCC3C(F)(F)F)ccc2n1)C(C1CC1)C1CC1` (single isomer, unassigned) [Compound 45]: greater than 1 µM. Take `CCn1nccc1C(=O)N[C@H](c1cn2nc(CC3C[C@@H](C(F)(F)F)CNC3=O)c(C(F)(F)F)cc2n1)[C@H]1CC[C@H](C)CC1` (single isomer, unassigned) [Compound 79]: the IC50 was greater than 1 µM.

As for `CCn1nccc1C(=O)N[C@H](c1cn2nc(C[C@H]3C[C@@H](C(F)(F)F)CNC3=O)c(C#N)cc2n1)C1CCC(F)(F)CC1` [Compound 81], the IC50 fell in the range of 0.1 to 1 µM. For `CCn1nccc1C(=O)NC(c1cn2nc(CC3C(=O)NCC4CC43)ccc2n1)C1CCC(C)CC1` (single isomer, unassigned) [Compound 47], the 50% inhibitory concentration (IC50) is greater than 1 µM. Take `CCn1nccc1C(=O)N[C@H](c1cn2nc(C[C@@H]3CCCNC3=O)ccc2n1)C(C1CC1)C1CC1` (single isomer, unassigned) [Compound 33]: the IC50 was 0.1 to 1 µM. For the molecule `CCn1nccc1C(=O)N[C@H](c1cn2nc(CC3CCC(C(F)(F)F)NC3=O)ccc2n1)C(C1CC1)C1CC1` (single isomer, unassigned) [Compound 42], the IC50 is greater than 1 µM.

In the case of `CCn1nccc1C(=O)N[C@H](c1cn2nc(CC3C[C@@H](C(F)(F)F)CNC3=O)ccc2n1)C12CC(C)(C1)C2` (stereo partly drawn) [Compound 178, 1-ethyl-N-((1S)-(3-methylbicyclo[1.1.1]pentan-1-yl)(6-(((5R)-2-oxo-5-(trifluoromethyl)piperidin-3-yl)methyl)imidazo[1,2-b]pyridazin-2-yl)methyl)-1H-pyrazole-5-carboxamide], the IC50 is greater than 1 µM.

In the case of `CCn1nccc1C(=O)N[C@H](c1cn2nc(CC3C[C@@H](C(F)(F)F)CNC3=O)c(C(C)C)cc2n1)C1CCC(F)(F)CC1` (stereo partly drawn) [Compound 180, N-((1S)-(4,4-difluorocyclohexyl)(7-isopropyl-6-(((5R)-2-oxo-5-(trifluoromethyl)piperidin-3-yl)methyl)imidazo[1,2-b]pyridazin-2-yl)methyl)-1-ethyl-1H-pyrazole-5-carboxamide], the IC50 is less than 0.1 µM. `CC[C@@H]1CC(Cc2ccc3nc([C@@H](NC(=O)c4ccnn4CC)[C@H]4CC[C@H](C)CC4)cn3n2)C(=O)N1` (stereo partly drawn) [Compound 59, 1-ethyl-N-((1S)-(6-(((5R)-5-ethyl-2-oxopyrrolidin-3-yl)methyl)imidazo[1,2-b]pyridazin-2-yl)((1r,4S)-4-methylcyclohexyl)methyl)-1H-pyrazole-5-carboxamide]: the IC50 lay within 0.1 to 1 µM. For the molecule `CCn1nccc1C(=O)N[C@H](c1cn2nc(CC3CC(F)(F)CNC3=O)c(C)cc2n1)C1CCC(F)(F)CC1` (single isomer, unassigned) [Compound 76], the IC50 was 0.1 to 1 µM. Regarding `CCn1nccc1C(=O)N[C@H](c1cn2ncc(CC3C[C@@H](C(F)(F)F)NC3=O)cc2n1)C(C1CC1)C1CC1` (single isomer, unassigned) [Compound 202], the IC50 is 0.1 to 1 µM. As for `CCn1nccc1C(=O)N[C@H](c1cn2nc(CC3CC(F)(F)CNC3=O)ccc2n1)C1CCCCCC1` (single isomer, unassigned) [Compound 9, N-((1 S)-cycloheptyl(6-((5,5-difluoro-2-oxopiperidin-3-yl)methyl)imidazo[1,2-b]pyridazin-2-yl)methyl)-1-ethyl-1H-pyrazole-5-carboxamide], the IC50 was less than 0.1 µM. The result for `CCn1nccc1C(=O)N[C@H](c1cn2nc(CC3C[C@@H](C(F)(F)F)CNC3=O)ccc2n1)C1CC(C2CC2)(C2CC2)C1` (stereo partly drawn) [Compound 172, N-((1S)-(3,3-dicyclopropylcyclobutyl)(6-(((5R)-2-oxo-5-(trifluoromethyl)piperidin-3-yl)methyl)imidazo[1,2-b]pyridazin-2-yl)methyl)-1-ethyl-1H-pyrazole-5-carboxamide] reads greater than 1 µM. `CCn1nccc1C(=O)N[C@H](c1cn2nc(CC3C(=O)NC4CC3C4)ccc2n1)[C@H]1CC[C@H](C)CC1` (stereo partly drawn) [Compound 61, 1-ethyl-N-((1S)-((1r,4S)-4-methylcyclohexyl)(6-((3-oxo-2-azabicyclo[3.1.1]heptan-4-yl)methyl)imidazo[1,2-b]pyridazin-2-yl)methyl)-1H-pyrazole-5-carboxamide]: the IC50 was 0.1 to 1 µM. Consider `CCn1nccc1C(=O)N[C@H](c1cn2nc(CC3C[C@@H](C(F)(F)F)CNC3=O)ccc2n1)C1CC2(CCC2)C1` (single isomer, unassigned) [Compound 189], for which the IC50 fell in the range of 0.1 to 1 µM. The result for `CCn1nccc1C(=O)N[C@H](c1cn2ncc(CC3C[C@@H](C(F)(F)F)NC3=O)cc2n1)C(C1CC1)C1CC1` (single isomer, unassigned) [Compound 201] reads greater than 1 µM; that for `CCn1nccc1C(=O)N[C@H](c1cn2nc(C(C)C3C[C@@H](C(F)(F)F)CNC3=O)ccc2n1)C(C1CC1)C1CC1` (single isomer, unassigned) [Compound 55], 0.1 to 1 µM. For `CCn1nccc1C(=O)N[C@H](c1cn2nc(CC3C[C@@H](C(F)(F)F)CNC3=O)ccc2n1)C1CCCCCC1` (stereo partly drawn) [Compound 169, N—((S)-cycloheptyl(6-(((3R.5R)-2-oxo-5-(trifluoromethyl)piperidin-3-yl)methyl)imidazo[1,2-b]pyridazin-2-yl)methyl)-1-ethyl-1H-pyrazole-5-carboxamide], the IC50 fell in the range of 0.1 to 1 µM. With `O=C(N[C@H](c1cn2ncc(CC3C[C@@H](C(F)(F)F)NC3=O)cc2n1)C1CCC(F)(F)CC1)c1nonc1C1CC1` (single isomer, unassigned) [Compound 205], the IC50 was less than 0.1 µM.
